The values that follow come from the supplement of paper PMC6965134.

This data set in a line: TIMS collisional cross section (CCS, N2) of the lipid ion; higher = larger ion cross section. The settings on record: ionization mode: negative, one isomer drawn. The protocol:
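Lipid extracts of human plasma (NIST SRM 1950), mouse liver or HeLa cells were separated by nanoflow C18 LC (30 min gradient) and analysed by TIMS-PASEF on a timsTOF Pro. Ion mobility was calibrated with the Agilent tuning mix (negative mode ions) and converted to collisional cross sections (Mason–Schamp, N2).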
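Further: lipids from MTBE extraction, five replicate injections per sample, 100 ms TIMS ramp spanning 0.6–1.95 Vs/cm², lipid identity assigned from PASEF MS/MS spectra.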

As to `CCCCC/C=C\C/C=C\CCCCCCCC(=O)O[C@H](CO/C=C\CCCCCCCCCCCCCCCC)COP(=O)(O)OCCN` [PE P- 18:0@_18:2], the “TIMS collisional cross section” value (sample type: Human plasma, ion (formula + adduct): [C41H78NO7P-CH3] 1-) is reported as 269 Å².

Consider `CC/C=C\C/C=C\C/C=C\C/C=C\C/C=C\C/C=C\CCC(=O)OC[C@H](COP(=O)(O)OCCN)OC(=O)CCCCCCCCCCCCCCCCCCC` [PE 22:6_20:0], for which the “TIMS collisional cross section” value (sample type: Mouse Liver, ion (formula + adduct): [C47H82NO8P-H] 1-) was found to be 287.5 Å². In the case of `CCCCCC/C=C\CCCCCCCC(=O)O[C@H](COC(=O)CCCCCCCCCCCCC)COP(=O)([O-])OCC[N+](C)(C)C` [PC 14:0_16:1], the “TIMS collisional cross section” value (sample type: Human plasma, ion (formula + adduct): [C38H74NO8P+HCOO] 1-) is 280.9 Å². Regarding `CCCCCCCCCCCCCCCCOC[C@H](COP(=O)([O-])OCC[N+](C)(C)C)OC(=O)CCCCCCCCCCCCCCC` [PC O- 16:0_16:0], the “TIMS collisional cross section” value (sample type: Human plasma, ion (formula + adduct): [C40H82NO7P+HCOO] 1-) came out at 287.8 Å². Consider `CCCCC/C=C\C/C=C\C/C=C\C/C=C\CCCC(=O)O[C@H](COC(=O)CCCCCCCCCCCCCCCCCC)COP(=O)(O)OCCN` [PE 19:0_20:4], for which the “TIMS collisional cross section” value (sample type: Mouse Liver, ion (formula + adduct): [C44H80NO8P-H] 1-) was determined as 279.6 Å². On to `CCCCCCCC/C=C\CCCCCCCC(=O)N[C@@H](COP(=O)([O-])OCC[N+](C)(C)C)[C@H](O)/C=C/CCCCCCCCCCC` [SM d16:1_18:1@], for which the “TIMS collisional cross section” value (sample type: Human plasma, ion (formula + adduct): [C39H77N2O6P+HCOO] 1-) stood at 285 Å².

As to `CCCCC/C=C\C/C=C\CCCCCCCC(=O)OC[C@H](COP(=O)(O)OCC(O)COP(=O)(O)OC[C@@H](COC(=O)CCCCCCC/C=C\C/C=C\CCCCC)OC(=O)CCCCCCC/C=C\C/C=C\CCCCC)OC(=O)CCCCCCC/C=C\C/C=C\CCCCC` (stereo not given in full) [CL 18:2_18:2_18:2_18:2], the “TIMS collisional cross section” value (sample type: Mouse Liver, ion (formula + adduct): [C81H142O17P2-H] 2-) stood at 411.8 Å². As to `CCCCC/C=C\C[C@H](O)/C=C/C=C\C/C=C\CCCC(=O)O[C@H](COC(=O)CCCCCCCCCCCCCCCCC)COP(=O)(O)OCCN` [Oxidized PE 18:0_20:4], the “TIMS collisional cross section” value is, setting by setting: (sample type: Human plasma, ion (formula + adduct): [C43H78NO9P-H] 1-) 282.5 Å²; (sample type: Mouse Liver, ion (formula + adduct): [C43H78NO9P-H] 1-) 279 Å². With `CCCCCCCCCCCCCCCC(=O)OC[C@@H](O)COP(=O)(O)O` [LPA 16:0_0:0], for the setting “sample type: Human plasma, ion (formula + adduct): [C19H39O7P-H] 1-”, the “TIMS collisional cross section” value came to 201.2 Å². As to `CCCCCCCCCCCCCCCC(=O)OC[C@H](COP(=O)(O)OC[C@H](N)C(=O)O)OC(=O)CCCCCCCCCCCCC` [PS 16:0_14:0@], under “sample type: Human plasma, ion (formula + adduct): [C36H70NO10P-H] 1-”, the “TIMS collisional cross section” value turned out to be 269.6 Å².

Turning to `CC/C=C\C/C=C\C/C=C\C/C=C\C/C=C\C/C=C\CCC(=O)OC(COC(=O)CCCCCCCCCCCCCCCCC)COP(=O)(O)OCCN` (stereo not given) [PE 18:0@_22:6], the “TIMS collisional cross section” value (sample type: Human plasma, ion (formula + adduct): [C45H78NO8P+AcO] 1-) is reported as 297.5 Å². On to `CC/C=C\C/C=C\C/C=C\C/C=C\C/C=C\C/C=C\CCC(=O)O[C@H](COC(=O)CCCCCCCCCCCCCCCC)COP(=O)([O-])OCC[N+](C)(C)C` [PC 17:0_22:6], for which the “TIMS collisional cross section” value (sample type: Mouse Liver, ion (formula + adduct): [C47H82NO8P+HCOO] 1-) was determined as 300.6 Å². In the case of `C=CC(=O)O[C@H](COC(=O)CCCCCCCCCCCCCCC)COP(=O)([O-])OCC[N+](C)(C)C` [PC 16:0_3:1], the “TIMS collisional cross section” value runs as follows: (sample type: Human plasma, ion (formula + adduct): [C27H52NO8P+AcO] 1-) 245.3 Å²; (sample type: Mouse Liver, ion (formula + adduct): [C27H52NO8P+OAcO] 1-) 252.2 Å². As to `CCCCCCCCC/C=C\CCCCCCCC(=O)O[C@H](COC(=O)CCCCCCCCCCCCCCCCC)COP(=O)(O)OCCN` [PE 18:0_19:1], for the setting “sample type: Mouse Liver, ion (formula + adduct): [C42H82NO8P-H] 1-”, the “TIMS collisional cross section” value is given as 278 Å².

With `CC/C=C\C/C=C\C/C=C\C/C=C\CCCCC(=O)O[C@H](CO/C=C\CCCCCCCCCCCCCC)COP(=O)(O)OCCN` [PE P- 16:0@_18:4], the “TIMS collisional cross section” value (sample type: Human plasma, ion (formula + adduct): [C39H70NO7P+AcO] 1-) amounted to 275.7 Å². Consider `CC/C=C\C/C=C\C/C=C\C/C=C\C/C=C\CCCC(=O)OC[C@@H](O)COP(=O)([O-])OCC[N+](C)(C)C` [LPC 20:5_0:0], for which the “TIMS collisional cross section” value is, setting by setting: (sample type: Human plasma, ion (formula + adduct): [C28H48NO7P+HCOO] 1-) 242.5 Å²; (sample type: Human plasma, ion (formula + adduct): [C28H48NO7P-CH3] 1-) 224.7 Å²; (sample type: Mouse Liver, ion (formula + adduct): [C28H48NO7P+HCOO] 1-) 241.9 Å².
